Literature values as cited in patent publication US10314832B2, “β- and γ-diketones and γ-hydroxyketones as Wnt/β-catenin signaling pathway activators” (Samumed, LLC, priority 2010, dated 2019).

B1: Wnt3a: Wnt ligand protein; soluble peptide agonist of LRP5 and Fzd co-receptors (protein, UniProt P56704 19-352, looked up)
Protein Wnt-3a: SYPIWWSLAVGPQYSSLGSQPILCASIPGLVPKQLRFCRNYVEIMPSVAEGIKIGIQECQHQFRGRRWNCTTVHDSLAIFGPVLDKATRESAFVHAIASAGVAFAVTRSCAEGTAAICGCSSRHQGSPGKGWKWGGCSEDIEFGGMVSREFADARENRPDARSAMNRHNNEAGRQAIASHMHLKCKCHGLSGSCEVKTCWWSQPDFRAIGDFLKDKYDSASEMVVEKHRESRGWVETLRPRYTYFKVPTERDLVYYEASPNFCEPNPETGSFGTRDRTCNVSSHGIDGCDLLCCGRGHNARAERRREKCRCVFHWCCYVSCQECTRVYDVHTCK

How the values were obtained:
[1] = topical solution, patients with age-related hair loss; cited from earlier work
[2] = system: dedifferentiated Müller glia; settings: photoreceptor-damaged retina; cited from earlier work

Molecule | patients with moderate regrowth of hair [1] | increase in proliferation of dedifferentiated Müller glia [2]
Nc1cc(N2CCCCC2)nc(N)[n+]1[O-] [minoxidil] | less than 40% | 
B1 |  | > 20 fold
